Laboratory results published in patent publication US20260256889A1, “Pharmaceutical formulations comprising a cyclodextrin” (Novo Nordisk A/S, priority 2021, published 2026).

Assay: Optimal pH (chemical and physical stability across the pH range)
Assay type: physicochemical
Description: The person skilled in the art can easily find the amylin receptor agonist's optimal pH by testing its chemical and physical stability, in an aqueous solution essentially consisting of the amylin receptor agonist, a buffer and water for injection, across the pH range.
The person skilled in the art can easily find the GLP-1 receptor agonist's optimal pH by testing its chemical and physical stability, in an aqueous solution essentially consisting of the GLP-1 receptor agonist, a buffer and water for injection, across the pH range. The physical stability of the GLP-1 receptor agonist may be a reflection of its isoelectric point, which may coincide with the pH where poorest physical stability might be expected.

Substance: N^6.26-{18-[N-(17-carboxyheptadecanoyl)-L-γ-glutamyl]-10-oxo-3,6, 12, 15-tetraoxa-9,18-diazaoctadecanoyl}-[8-(2-amino-2-propanoic acid),34-L-arginine] human glucagon-like peptide 1 (7-37) [Semaglutide]
- pH at which optimally stable: 7.4
